Laboratory results published in patent publication US20260199492A1, “PSD-95 DOMAIN INHIBITOR, AND PREPARATION METHOD THEREFOR AND USE THEREOF” (SHENZHEN SALUBRIS PHARMACEUTICALS CO., LTD, priority 2023, published 2026).
pIC50: −log10 of the molar value. Square brackets hold non-standard residues; d marks the D form. Ends that are not written are not given here. Peptide text beside a SMILES is read from it.

Key:
PDZ1-2 of PSD95 = PDZ1-2 of PSD95 (Homo sapiens, UniProt P78352); assay: Fluorescence polarization competition binding assay of PDZ1-2 with probe 5-FAM-NA-1
Chain of PDZ1-2 of PSD95 (P78352 61-249 limits assumed): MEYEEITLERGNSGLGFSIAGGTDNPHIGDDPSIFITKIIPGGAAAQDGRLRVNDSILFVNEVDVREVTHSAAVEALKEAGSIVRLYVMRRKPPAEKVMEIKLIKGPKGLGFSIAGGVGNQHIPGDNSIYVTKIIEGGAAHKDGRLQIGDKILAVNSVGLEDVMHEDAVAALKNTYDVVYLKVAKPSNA

[1] = Toxicological experiment: serum UREA and CREA after 5 days of i.v. dosing; assay type: in vivo, SD rats; conditions: male SD rats, 30 mg/kg i.v. once daily for 5 days, serum 2 h after dosing on day 5
Protocol: The compounds of Examples 1-8 were accurately weighed into suitable EP tubes, and the vehicle (saline) was added to formulate a solution of a concentration of 15 mg/mL. The solution was filtered using a 0.2 μm filter for future use.
A total of 18 male SD rats of 6-7 weeks of age were used for test. After the animal quarantine and acclimatization period, the animals were randomly divided into 6 groups according to their body weights measured before grouping, vehicle control group (saline) as well as example compounds groups, 3 animals/group. Using the above prepared solution, the animal was administered intravenously via the tail vein at a dosage of 30 mg/kg and a dosing volume of 2 mL/kg. The dosing volume for each animal was calculated according to the body weight. Administration was performed once daily for 5 consecutive days. After 2 h of administration on day 5, the animals were deeply anesthetized by intraperitoneal injection of sodium pentobarbital. The thoracic cavity was opened, and blood was collected from the abdominal aorta into blood collection tubes containing inert separation gel and coagulant. The serum was collected by centrifugation (4000 rpm, 10 min) after about 1 h of resting. The concentrations of UREA and CREA in the serum were detected using a biochemical analyzer. The percentage change of each example compound relative to the vehicle control group was calculated using the formula: %=(Concentration of example compound−Concentration of vehicle control group)/Concentration of vehicle control group.

[2] = Tissue distribution experiment of TAMRA-labeled compounds; assay type: in vivo; conditions: TAMRA-labeled compound, male Balb/c mice, 3 nmol/g tail vein injection, 45 min circulation, after perfusion
Protocol: The TAMRA-labeled example compounds were dissolved in saline to prepare a solution with a concentration of 600 μM/mL. A 100 μL of the above prepared solution was administered, at a dose of 3 nmol/g, to 6-week-old male Balb/c mice (18-22 g) via tail vein injection. After 45 min of circulation, the animals were deeply anesthetized by intraperitoneal injection of sodium pentobarbital. The thoracic cavity was opened, and the mice were subjected to cardiac perfusion using 0.01 M PBS (pH 7.4), and the brains, kidneys, and livers were collected at the end of perfusion. The harvested tissues were immediately placed on ice and stored at −80° C. […] The supernatant was transferred to a black 96-well plate with a clear bottom, and the TAMRA-peptide was quantified using a PHERAstar FSX plate reader (BMG LABTECH, Ortenberg, Germany). The excitation/emission wavelengths were set at 540/580 nm. The corresponding peptide concentration in the tissues was calculated using a standard curve (blank tissue mixed with TAMRA-peptide, concentration range of 0-1000 nM).

in vitro = conditions: human, plasma
Protocol: (§1) • Plasma: Human plasma is commercially available. • Reagents: DMSO (dimethyl sulfoxide), disodium hydrogen phosphate, sodium dihydrogen phosphate, methanol, formic acid, and propranolol (internal standard) are commercially available. • Instrument: AB SCIEX QTRAP 5500+.
(§2) 5 μL of stock solution (10 mM) was diluted with 495 μL of 0.05 M sodium phosphate buffer to 100 μM of dosing solution. The final concentration of tested drug for incubation was 10 μM.
(§3) A certain volume (e.g., 27 μL or 24 μL) of plasma was added into a 96-well plate. An appropriate volume of the internal standard working solution (e.g., 150 μL) was immediately added to precipitate. […] This was performed in duplicate.
(§4) Then, an appropriate amount of plasma (e.g., 27 μL or 24 μL) was added at the designed time points (e.g., 5 min, 15 min, 30 min, 60 min, and 120 min, etc.), and the parallel replicate wells were performed at each time point. […] The reaction was terminated by adding an appropriate amount of internal standard working solution (e.g., 150 μL) at the end of the time, and the mixture was mixed thoroughly.
(§5) The mixture was centrifuged at 4000 rpm for 15 min. A certain amount of the supernatant was taken, mixed with a certain amount of water, and then subjected to LC/MS/MS analysis. LC-MS detection conditions were as follows: • Chromatography column: YMC Triart C18, 50*3.0 mm, 2.1 μm. • Mobile phase: Gradient elution was performed using water (0.1% formic acid)-acetonitrile according to the table below.
(§6) The relative content of drug at each time point was calculated using the initial 0 point as 100%. The half-life of the drug was calculated by plotting “relative drug content” against “incubation time” using GraphPad Prism 5 software.

[3] = In vitro plasma stability experiment (compounds), without or with tPA; conditions: human, With tPA T1/2, human plasma, 37° C., initial concentration 10 μM, with rt-PA […]
Protocol: as §1, §2, §3, §4, §5, §6

| Compound | pIC50 (PDZ1-2 of PSD95) | CREA, percentage change compared to vehicle control group [1] | UREA, percentage change compared to vehicle control group [1] | Mean tissue concentration, Brain [2] | half-life (in vitro; With tPA T1/2) | half-life (in vitro; Without tPA T1/2) | half-life at 10 μM [3] |
| --- | --- | --- | --- | --- | --- | --- | --- |
| CC[C@H](C)[C@H](NC(=O)[C@H](CO)NC(=O)[C@H](CO)NC(=O)[C@H](CC(C)C)NC(=O)[C@@H](CCCCN)NC(=O)[C@H](CCCNC(=N)N)NC(=O)[C@H](CCCNC(=N)N)NC(=O)[C@@H](CCCNC(=N)N)NC(=O)[C@H](CCC(=O)O)NC(=O)[C@@H](CCCNC(=N)N)NC(=O)[C@H](CCCNC(=N)N)NC(=O)[C@H](CCCCN)NC(=O)[C@H](CCCCN)NC(=O)[C@@H](CCCNC(=N)N)NC(=O)CNC(=O)[C@@H](N)Cc1ccc(O)cc1)C(=O)N[C@@H](CCC(=O)O)C(=O)N[C@@H](CO)C(=O)N[C@@H](CC(=O)O)C(=O)N[C@H](C(=O)O)C(C)C [Compound 15] (H-YG[dR]KKR[dR]E[dR]RR[dK]LSSIESDV-OH) | 4.95 | 90.8% | 88.6% | 4.4515 nmol/g | > 2000 min | > 2000 min |  |
| YGRKKRRQRRRKLSSIESDV [NA-1, reference compound] |  |  |  | 2.9115 nmol/g |  |  | 3.61 min |
| CC[C@H](C)[C@H](NC(=O)[C@H](CO)NC(=O)[C@H](CO)NC(=O)[C@H](CC(C)C)NC(=O)[C@@H](CCCCN)NC(=O)[C@H](CCCNC(=N)N)NC(=O)[C@@H](CCCNC(=N)N)NC(=O)[C@H](CCC(N)=O)NC(=O)[C@@H](CCCNC(=N)N)NC(=O)[C@H](CCCNC(=N)N)NC(=O)[C@H](CCCCN)NC(=O)[C@H](CCCCN)NC(=O)[C@@H](CCCNC(=N)N)NC(=O)CNC(=O)[C@@H](N)Cc1ccc(O)cc1)C(=O)N[C@@H](CCC(=O)O)C(=O)N[C@@H](CO)C(=O)N[C@@H](CC(=O)O)C(=O)N[C@H](C(=O)O)C(C)C [Compound 1] (H-YG[dR]KKR[dR]Q[dR]R[dK]LSSIESDV-OH; N-terminus and C-terminus assumed) | 4.83 | 216.9% | 206.9% | 5.9220 nmol/g |  |  |  |
